The values that follow come from article PMC7953826 (Nature cell biology, 2020).

Molecules are shown by their SMILES.

In one assay the target is T1, hDyn2 (Homo sapiens, UniProt P50570).
T1 sequence (P50570 1-870): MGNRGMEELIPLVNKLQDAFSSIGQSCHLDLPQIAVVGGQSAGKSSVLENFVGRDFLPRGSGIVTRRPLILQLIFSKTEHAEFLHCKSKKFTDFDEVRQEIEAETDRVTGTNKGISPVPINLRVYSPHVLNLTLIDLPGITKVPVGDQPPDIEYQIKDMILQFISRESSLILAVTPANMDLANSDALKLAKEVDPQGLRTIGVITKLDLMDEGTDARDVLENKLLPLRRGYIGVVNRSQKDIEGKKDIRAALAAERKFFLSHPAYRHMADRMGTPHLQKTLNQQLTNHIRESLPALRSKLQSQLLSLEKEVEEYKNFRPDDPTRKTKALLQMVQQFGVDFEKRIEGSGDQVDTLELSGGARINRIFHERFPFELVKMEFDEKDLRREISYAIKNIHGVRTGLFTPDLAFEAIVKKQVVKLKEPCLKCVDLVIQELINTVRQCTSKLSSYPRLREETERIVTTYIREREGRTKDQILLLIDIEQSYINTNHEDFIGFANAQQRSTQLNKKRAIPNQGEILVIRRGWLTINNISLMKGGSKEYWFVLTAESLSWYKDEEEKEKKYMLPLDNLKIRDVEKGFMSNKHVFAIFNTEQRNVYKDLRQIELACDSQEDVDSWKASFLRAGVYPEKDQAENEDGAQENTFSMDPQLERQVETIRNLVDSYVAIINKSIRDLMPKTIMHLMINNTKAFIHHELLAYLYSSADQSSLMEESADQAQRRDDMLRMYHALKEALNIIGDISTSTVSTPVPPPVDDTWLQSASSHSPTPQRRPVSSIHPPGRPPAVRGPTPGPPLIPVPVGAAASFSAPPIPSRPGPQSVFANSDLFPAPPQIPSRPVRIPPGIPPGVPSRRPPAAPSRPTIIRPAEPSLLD
Kind of assay: negative-stain EM, GTP-induced helix disassembly on actin bundles. The note with it: 1 mM GTP, with actin, room temperature, 30 min. Format: binding.

The next assay has as its target T2, hDyn1 (Homo sapiens, UniProt Q05193).
T2 sequence (Q05193 1-864): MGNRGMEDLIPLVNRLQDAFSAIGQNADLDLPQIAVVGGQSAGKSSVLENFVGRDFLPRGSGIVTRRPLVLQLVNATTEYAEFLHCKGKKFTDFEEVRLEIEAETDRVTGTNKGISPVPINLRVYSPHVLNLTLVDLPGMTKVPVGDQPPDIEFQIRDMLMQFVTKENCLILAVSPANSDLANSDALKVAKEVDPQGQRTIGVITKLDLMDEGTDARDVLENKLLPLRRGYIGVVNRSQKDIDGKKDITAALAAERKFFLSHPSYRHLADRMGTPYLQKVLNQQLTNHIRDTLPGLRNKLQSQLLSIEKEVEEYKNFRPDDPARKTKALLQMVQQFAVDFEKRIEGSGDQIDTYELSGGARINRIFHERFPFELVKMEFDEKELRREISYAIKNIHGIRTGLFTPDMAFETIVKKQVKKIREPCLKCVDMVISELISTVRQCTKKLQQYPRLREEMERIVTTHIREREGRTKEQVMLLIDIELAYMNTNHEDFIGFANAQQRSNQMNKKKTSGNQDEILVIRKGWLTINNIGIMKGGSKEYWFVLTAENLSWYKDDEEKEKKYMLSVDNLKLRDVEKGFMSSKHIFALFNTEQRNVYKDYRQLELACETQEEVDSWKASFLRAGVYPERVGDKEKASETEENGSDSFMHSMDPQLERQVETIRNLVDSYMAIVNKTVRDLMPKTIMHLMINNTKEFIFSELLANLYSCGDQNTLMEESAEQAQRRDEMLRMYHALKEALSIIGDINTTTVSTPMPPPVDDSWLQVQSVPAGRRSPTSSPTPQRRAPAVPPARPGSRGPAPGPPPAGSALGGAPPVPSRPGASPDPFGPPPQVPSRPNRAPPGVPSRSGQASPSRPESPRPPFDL
Described as above. Type of assay: binding. The note with it: 1 mM GTP, with actin, room temperature, 30 min.

Turning to `Nc1nc2c(ncn2[C@@H]2O[C@H](COP(=O)(O)OP(=O)(O)OP(=O)(O)O)[C@@H](O)[C@H]2O)c(=O)[nH]1` [GTP], the “negative-stain EM, GTP-induced helix disassembly on actin bundles” value on hDyn2 was “hDyn1 and hDyn2 helices along actin bundles were disassembled upon GTP addition”; on hDyn1, “hDyn1 and hDyn2 helices along actin bundles were disassembled upon GTP addition”.
